From patent publication US20040019429A1, “Methods and systems for analyzing complex biological systems” (priority 2001, published 2004)
Entries after “also recorded” stand apart in the source; their conditions may differ.

Assays:
[1] = system: Arabidopsis thaliana plants; assay: SOA1 phenotypic analysis of herbicide-treated plants (MIC, Tmic, leaf traits, symptom class); assay type: in vivo; details: for leafCurling (Dev.) / leafTwisting (Dev.) / leafWidth (Dev.) / matureLeafAnthocyanins (Dev.) / matureLeafChlorosis (Dev.) / matureLeafNecrosis (Dev.) / newLeafAnthocyanins (Dev.) / newLeafChlorosis (Dev.) / newLeafNecrosis (Dev.) / pointedLeaves (Dev.): numeric value standardized to mock treated plants; for leafCurling (Dev.) / leafTwisting (Dev.) / leafWidth (Dev.) / matureLeafAnthocyanins (Dev.) / matureLeafChlorosis (Dev.) / matureLeafNecrosis (Dev.) / newLeafAnthocyanins (Dev.) / newLeafChlorosis (Dev.) / newLeafNecrosis (Dev.) / pointedLeaves (Dev.) / tMic (Dev.): SOA1; for tMic (Dev.): score for time to full range of symptoms at the MIC; for Characteristic symptoms of treated plants (in words): SOA1 phenotypic analysis
Arabidopsis thaliana [2] = assay: MOA1 phenotypic profiling of sprayed plants (eleven phenotypic characteristics); assay type: in vivo; details: hierarchical cluster analysis of eleven phenotypic characteristics
Arabidopsis thaliana [3] = assay: MOA1 gene expression profiling (arrays of 22,000 Arabidopsis genes); details: for Gene expression perturbation (in words): MOA1, one-hour time point; for No. of Lethal Genes Altered: altered genes identified as essential for plant growth in internal database
Arabidopsis thaliana [4] = assay: MOA1 biochemical (metabolite) profiling by LC-MS and GC-MS; details: 20 minutes and 1 hour after spraying
[5] = system: Saccharomyces cerevisiae wild type strain BY4743; assay: AF1 yeast metabolite analysis by GC-MS and LC-MS after antifungal drug treatment; assay type: cell-based; details: for Fold Change, phosphoenolpyruvate: metabolite phosphoenolpyruvate; for Fold Change, thymine: metabolite thymine; for Fold Change, urocanic acid: metabolite urocanic acid; for Fold Change, zeatin: metabolite zeatin
Magnaporthe grisea = assay type: cell-based
[6] = 1 hr, p < 0.5, number of genes of 22,000

O=C(O)COc1ccc(Cl)cc1Cl [2,4-D]
leafCurling (Dev.) [1]: 1
leafTwisting (Dev.) [1]: 2
leafWidth (Dev.) [1]: −1
matureLeafAnthocyanins (Dev.) [1]: 1
matureLeafChlorosis (Dev.) [1]: 2
matureLeafNecrosis (Dev.) [1]: 0
newLeafAnthocyanins (Dev.) [1]: 0
newLeafChlorosis (Dev.) [1]: 1
newLeafNecrosis (Dev.) [1]: 0
pointedLeaves (Dev.) [1]: 0
tMic (Dev.) [1]: 2
Symptom Class ([1]; three-week-old Arabidopsis plants treated with herbicide): 5

O=C(O)c1cc(Oc2ccc(C(F)(F)F)cc2Cl)ccc1[N+](=O)[O-] [Acifluorfen]
Characteristic symptoms of treated plants (in words) [1]: Necrotic leaf flecks

Nc1nc[nH]n1 [Amitrole]
Phenotype and phenotypic clustering (in words) (Arabidopsis thaliana [2]): exhibited chlorosis and not true bleaching
Characteristic symptoms of treated plants (in words) [1]: leaf bleaching and leaf enlargement

COC(=O)NS(=O)(=O)c1ccc(N)cc1 [Asulam]
Gene expression perturbation (in words) (Arabidopsis thaliana [3]): fewest gene expression perturbations
No. of Lethal Genes Altered (Arabidopsis thaliana [3]; 1 hr): 5

CCNc1nc(Cl)nc(NC(C)C)n1 [Atrazine]
Characteristic symptoms of treated plants (in words) [1]: rapid and widespread leaf necrosis

CC(C)N1C(=O)c2ccccc2NS1(=O)=O [Bentazon]
Characteristic symptoms of treated plants (in words) [1]: rapid and widespread leaf necrosis

COC(=O)c1cc(Oc2ccc(Cl)cc2Cl)ccc1[N+](=O)[O-] [Bifenox]
Characteristic symptoms of treated plants (in words) [1]: Necrotic leaf flecks

CCSC(=O)N(CC(C)C)CC(C)C [Butylate]
Regulated metabolites relative to control (in words) (Arabidopsis thaliana [4]): neither butylate nor chlorpropham treatment resulted in many changes in these commonly regulated metabolites
Phenotype and phenotypic clustering (in words) (Arabidopsis thaliana [2]): neither showed a strong herbicidal phenotype

COc1nc(C)nc(NC(=O)NS(=O)(=O)c2ccccc2Cl)n1 [Chlorsulfuron]
Characteristic symptoms of treated plants (in words) [1]: anthocyanin accumulation in the older leaves accompanied by chlorosis of the newly emerging leaves
No. of Lethal Genes Altered (Arabidopsis thaliana [3]; 1 hr): 8

c1cc[n+]2c(c1)-c1cccc[n+]1CC2 [Diquat]
Characteristic symptoms of treated plants (in words) [1]: rapid and widespread leaf necrosis
leafCurling (Dev.) [1]: 2
leafTwisting (Dev.) [1]: 0
leafWidth (Dev.) [1]: −2
matureLeafAnthocyanins (Dev.) [1]: 0
matureLeafChlorosis (Dev.) [1]: 1
matureLeafNecrosis (Dev.) [1]: 4
newLeafAnthocyanins (Dev.) [1]: 0
newLeafChlorosis (Dev.) [1]: 1
newLeafNecrosis (Dev.) [1]: 4
pointedLeaves (Dev.) [1]: 1
tMic (Dev.) [1]: 2

CN(C)C(=O)Nc1ccc(Cl)c(Cl)c1 [Diuron]
Characteristic symptoms of treated plants (in words) [1]: rapid and widespread leaf necrosis
leafCurling (Dev.) [1]: 1
leafTwisting (Dev.) [1]: 0
leafWidth (Dev.) [1]: −2
matureLeafAnthocyanins (Dev.) [1]: 0
matureLeafChlorosis (Dev.) [1]: 2
matureLeafNecrosis (Dev.) [1]: 4
newLeafAnthocyanins (Dev.) [1]: newLeafAnthocyanins 0
newLeafChlorosis (Dev.) [1]: 2
newLeafNecrosis (Dev.) [1]: 4
pointedLeaves (Dev.) [1]: 1
tMic (Dev.) [1]: 1

OC(Cn1cncn1)(Cn1cncn1)c1ccc(F)cc1F [Fluconazole]
Fold Change, abscisic acid ([5]; platform LC): 0
Fold Change, adenosine ([5]; platform LC): 0

CP(=O)(O)CCC(N)C(=O)O (stereo not shown) [Glufosinate]
Regulated metabolites relative to control (in words) (Arabidopsis thaliana [4]): Only a few, if any, stress-related metabolites were observed
Characteristic symptoms of treated plants (in words) [1]: Chlorosis and leaf curling
leafCurling (Dev.) [1]: 2
leafTwisting (Dev.) [1]: 1
leafWidth (Dev.) [1]: −2
matureLeafAnthocyanins (Dev.) [1]: 0
matureLeafChlorosis (Dev.) [1]: 3
matureLeafNecrosis (Dev.) [1]: 0
newLeafAnthocyanins (Dev.) [1]: 0
newLeafChlorosis (Dev.) [1]: 3
newLeafNecrosis (Dev.) [1]: 0
pointedLeaves (Dev.) [1]: 1
tMic (Dev.) [1]: 1
Regulated Genes Following Herbicide Treatment: Down (Arabidopsis thaliana [3]; [6]): 54
No. of Lethal Genes Altered (Arabidopsis thaliana [3]; 1 hr): 10
Growth of M. grisea on various nitrogen sources, Tier 4 (Magnaporthe grisea): only able to utilize glutamine and glutamate as nitrogen sources

O=C(O)CNCP(=O)(O)O [Glyphosate]
Regulated metabolites relative to control (in words) (Arabidopsis thaliana [4]): (tyrosine), decreased relative to the control after one hour
Characteristic symptoms of treated plants (in words) [1]: anthocyanin accumulation in the older leaves accompanied by chlorosis of the newly emerging leaves
leafCurling (Dev.) [1]: 0
leafTwisting (Dev.) [1]: 0
leafWidth (Dev.) [1]: 0
matureLeafAnthocyanins (Dev.) [1]: 3
matureLeafChlorosis (Dev.) [1]: 1
matureLeafNecrosis (Dev.) [1]: 3
newLeafAnthocyanins (Dev.) [1]: 1
newLeafChlorosis (Dev.) [1]: 2
newLeafNecrosis (Dev.) [1]: 0
pointedLeaves (Dev.) [1]: 1
tMic (Dev.) [1]: 2
Growth of M. grisea on various nitrogen sources, Tier 4 (Magnaporthe grisea): inhibited growth of M. grisea when nitrate, nitrite, or glutamate was provided as the sole nitrogen source; also recorded: Little growth defect was observed when ammonium or glutamine was provided
Growth results for Tiers 3 and 4 (Magnaporthe grisea; 250 μg/ml): nearly identical as compared to Unknown 4
Growth inhibition of M. grisea and its remediation (Magnaporthe grisea; 1.0 mg/ml): remediated by inclusion of aromatic amino acids to the media

CC(C)C1(C)N=C(c2ncccc2C(=O)O)NC1=O (stereo not shown) [Imazapyr]
Regulated metabolites relative to control (in words) (Arabidopsis thaliana [4]): Only a few, if any, stress-related metabolites were observed
Characteristic symptoms of treated plants (in words) [1]: anthocyanin accumulation in the older leaves accompanied by chlorosis of the newly emerging leaves

CCc1cnc(C2=NC(C)(C(C)C)C(=O)N2)c(C(=O)O)c1 (stereo not shown) [Imazethapyr]
Characteristic symptoms of treated plants (in words) [1]: anthocyanin accumulation in the older leaves accompanied by chlorosis of the newly emerging leaves

CS(=O)(=O)c1cc(C(F)(F)F)ccc1C(=O)c1cnoc1C1CC1 [Isoxaflutole]
Regulated metabolites relative to control (in words) (Arabidopsis thaliana [4]): both tyrosine and phenylalanine were up-regulated relative to the control; also recorded: Alpha-tocopherol was detected, but the levels were not significantly changed relative to the control at the early time points; also recorded: (tyrosine and phenylalanine), began to accumulate relative to the control after one hour
Gene expression perturbation (in words) (Arabidopsis thaliana [3]): alterations in the expression of genes involved in the homogentisate biosynthetic pathway were not observed
No. of Lethal Genes Altered (Arabidopsis thaliana [3]; 1 hr): 15
Growth of M. grisea at a sub-inhibitory concentration (minimal, supplemented, minimal plus tyrosine media) (Magnaporthe grisea; concentration insufficient to inhibit growth): growth was inhibited in minimal plus tyrosine media, while growth in minimal media was unaffected

CC(=O)N1CCN(c2ccc(OCC3COC(Cn4ccnc4)(c4ccc(Cl)cc4Cl)O3)cc2)CC1 (stereo not shown) [Ketoconazole]
# Compounds perturbed by treatment ([5]; P < 0.1, 2X MIC, two hours): 15

CSc1nnc(C(C)(C)C)c(=O)n1N [Metribuzin]
Characteristic symptoms of treated plants (in words) [1]: rapid and widespread leaf necrosis

O=C(O)c1ccccc1C(=O)Nc1cccc2ccccc12 [Naptalam]
Regulated Genes Following Herbicide Treatment: Down (Arabidopsis thaliana [3]; [6]): 47
Regulated Genes Following Herbicide Treatment: Up (Arabidopsis thaliana [3]; [6]): 50
Gene expression perturbation (in words) (Arabidopsis thaliana [3]): fewest gene expression perturbations
No. of Lethal Genes Altered (Arabidopsis thaliana [3]; 1 hr): 3

CNc1cnn(-c2cccc(C(F)(F)F)c2)c(=O)c1Cl [Norfluazon, Norflurazon]
Regulated metabolites relative to control (in words) (Arabidopsis thaliana [4]): Only a few, if any, stress-related metabolites were observed

C[n+]1ccc(-c2cc[n+](C)cc2)cc1 [Paraquat]
Characteristic symptoms of treated plants (in words) [1]: rapid and widespread leaf necrosis
leafCurling (Dev.) [1]: 2
leafTwisting (Dev.) [1]: 0
leafWidth (Dev.) [1]: −1
matureLeafAnthocyanins (Dev.) [1]: 0
matureLeafChlorosis (Dev.) [1]: 1
matureLeafNecrosis (Dev.) [1]: 4
newLeafAnthocyanins (Dev.) [1]: 0
newLeafChlorosis (Dev.) [1]: 1
newLeafNecrosis (Dev.) [1]: 4
pointedLeaves (Dev.) [1]: 1
tMic (Dev.) [1]: 2

CC[C@@H]([C@H](C)O)n1ncn(-c2ccc(N3CCN(c4ccc(OC[C@@H]5CO[C@@](Cn6cncn6)(c6ccc(F)cc6F)C5)cc4)CC3)cc2)c1=O [Posaconazole]
Fold Change, NacetylDglucosamine ([5]; metabolite NacetylDglucosamine, platform nLC, p-Value 1): 0
Fold Change, NacetylLglucosamine ([5]; metabolite NacetylLglucosamine, platform pLC, p-Value 1): 0
Fold Change, NacetylLglutamate ([5]; metabolite NacetylLglutamate, platform pLC, p-Value 1): 0
Fold Change, NacetylLornithine ([5]; metabolite NacetylLornithine, platform nLC, p-Value 1): 0
Fold Change, niacinamide ([5]; metabolite niacinamide, platform pLC, p-Value 1): 0
Fold Change, nopaline ([5]; metabolite nopaline, platform pLC, p-Value 1): 0
Fold Change, ornithine3 ([5]; metabolite ornithine3, platform GC, p-Value 0.965157424): 0.041
Fold Change, orotic acid ([5]; metabolite orotic acid, platform nLC, p-Value 1): 0
Fold Change, phenylpyruvic acid ([5]; metabolite phenylpyruvic acid, platform nLC, p-Value 1): 0
Fold Change, phosphoenolpyruvate ([5]; platform LC, p-Value 1): 0
Fold Change, phosphoenolpyruvate ([5]; platform nLC, p-Value 1): 0
Fold Change, pinitol ([5]; metabolite pinitol, platform nLC, p-Value 1): 0
Fold Change, progesterone ([5]; metabolite progesterone, platform pLC, p-Value 1): 0
Fold Change, retinoic acid ([5]; metabolite retinoic acid, platform nLC, p-Value 1): 0
Fold Change, riboflavin ([5]; metabolite riboflavin, platform pLC, p-Value 1): 0
Fold Change, salicylic/HObenzoic ([5]; metabolite salicylic/HObenzoic, platform nLC, p-Value 1): 0
Fold Change, shikimic acid ([5]; metabolite shikimic acid, platform nLC, p-Value 1): 0
Fold Change, sinapinic acid ([5]; metabolite sinapinic acid, platform nLC, p-Value 1): 0
Fold Change, sugar-phosphate ([5]; metabolite sugar-phosphate, platform pLC, p-Value 1): 0
Fold Change, thiamine ([5]; metabolite thiamine, platform pLC, p-Value 1): 0
Fold Change, thymine ([5]; platform nLC, p-Value 1): 0
Fold Change, thymine ([5]; platform pLC, p-Value 1): 0
Fold Change, tryptophan ([5]; metabolite tryptophan, platform pLC, p-Value 1): 0
Fold Change, uric acid ([5]; metabolite uric acid, platform pLC, p-Value 1): 0
Fold Change, urocanic acid ([5]; platform nLC, p-Value 1): 0
Fold Change, urocanic acid ([5]; platform pLC, p-Value 1): 0
Fold Change, xanthosine(diH2O) ([5]; metabolite xanthosine(diH2O), platform pLC, p-Value 1): 0
Fold Change, xanthosineDiH2O ([5]; metabolite xanthosineDiH2O, platform nLC, p-Value 1): 0
Fold Change, zeatin ([5]; platform nLC, p-Value 1): 0
Fold Change, zeatin ([5]; platform pLC, p-Value 1): 0

CC[C@@H]([C@H](C)O)n1ncn(-c2ccc(N3CCN(c4ccc(OC[C@@H]5CO[C@@](Cn6cncn6)(c6ccc(F)cc6F)C5)cc4)CC3)cc2)c1=O [Posaconazote]
Fold Change, porphobilinogen ([5]; metabolite porphobilinogen, platform nLC, p-Value 1): 0
